Test results reported in article PMC12381781, “Structural and functional insights into the selective inhibition of mutant tau aggregation by purpurin and oleocanthal in frontotemporal dementia” (Protein Science : A Publication of the Protein Society, 2025).
“Also recorded” adds a separate entry of the source. Read-outs that look alike come from different tables or passages of the source.

How the values were obtained:
R2R3 (N279K) tau peptide = R2R3 (N279K) tau peptide (Homo sapiens, UniProt P10636, N596K); experiment: SPR titration cycle kinetics, immobilized R2R3 (N279K) peptide; format: binding
Sequence of R2R3 (N279K) tau peptide (P10636 592-653 N596K): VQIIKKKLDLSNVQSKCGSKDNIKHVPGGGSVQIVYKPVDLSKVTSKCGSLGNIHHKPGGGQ
Experimental: (§1) SPR experiments were conducted using the Sierra® SPR‐24 Pro system (Bruker Daltonics, Bremen, Germany), featuring a gold‐coated microfluidic array (24 detection spots, 3 × 8 format). Data acquisition and kinetic analysis were performed using SPR Analyzer 4 software.
(§2) All experiments were conducted at 25°C using PBS (pH 7.4) supplemented with 0.05% Tween‐20 and 5% DMSO as the running buffer to ensure assay reproducibility. Assay components, including 96‐well microtiter plates (Part # 1862984; Burker) and Microplate and Reservoir Sealer (Part #1862985; Burker), were used for sample handling and were compatible with the Sierra SPR®‐24 Pro system (Bruker Daltonics, Billerica, MA, USA).
(§3) WT and mutant (P301L, V287I, and N279K) tau peptides were dissolved in 10 mM sodium acetate buffer (pH 5.0; Burker) and immobilized onto High‐Capacity Amine Sensor Surfaces (Part #1862614; Bruker) using the Amine Coupling Kit (Part #1862634; Bruker). The sensor surface was preconditioned with a Surface Elution Buffer (Part #1862656; Bruker Daltonics) and 0.1M HCl to remove contaminants and improve binding specificity.
(§4) The surface was activated using 400 mM 1‐ethyl‐3‐(3‐dimethylaminopropyl) carbodiimide (Burker) and 50 mM N‐hydroxysuccinimide (Burker), enabling covalent attachment of tau peptides. Unreacted binding sites were blocked with 1M ethanolamine‐HCl (pH 8.5; Burker) to minimize nonspecific interactions. For each experiment, specific sensor spots (A/B/C) on channels 1–8 were designated for tau‐analyte interactions, with corresponding reference spots on the same channel for baseline correction. DMSO calibration solutions (4.6%, 4.8%, 5%, 5.2%, and 5.4%) were prepared for double referencing to compensate for DMSO solvent effects.
(§5) PUR and OLC were prepared in PBS (pH 7.4) supplemented with 0.05% Tween‐20 and 5% DMSO. Compound interactions with tau peptides were pre‐screened using a concentration range of 1–100 μM, and subsequent binding kinetics were evaluated at optimized concentrations. For kinetic studies, PUR was tested at […], while OLC was tested at 25–100 μM using two‐fold serial dilutions. Each analyte was sequentially injected, and association and dissociation phases were monitored to determine kinetic parameters.
(§6) SPR binding kinetics were assessed using the titration cycle kinetics (TCK) assay, which included consecutive association phases followed by a single dissociation phase. Pre‐assay simulations using the Kinetic Simulator feature of SPR Analyzer 4 software were used to optimize analyte concentration ranges and association/dissociation times. A reference blank injection was included for double referencing, and a single dissociation curve was recorded for the highest analyte concentration.
(§7) Sensorgrams were analyzed using the Kinetic Titration model, which was integrated into the global kinetic fitting model of the SPR Analyzer 4 software. This approach allowed for baseline correction and improved the reliability of kinetic parameters, including the Kon, Koff, and KD.
(§8) TCK‐derived kinetic parameters were compared across multiple runs and confirmed using Multi Injection Cycle Kinetics to validate reproducibility and accuracy.

[1] = tested on: Tau RD P301S FRET Biosensor cells; experiment: Biosensor cell seeding assay, aggregation products formed with compound (co-aggregation); format: cell-based; conditions: 100 nM transduced, 48 h
Experimental: Tau peptides were aggregated with or without PUR or OLC in a 7.4 pH aggregation buffer without ThT. After 48 h, the contents of each well were pooled to a final total volume of 120 μL. The concentration of the pooled Aggregation Reaction Products was measured using the Pierce™ BCA Protein Assay Kit (Thermo Fisher Scientific Inc., Cat. # 23225). The reaction products were standardized for cell transduction to a final concentration of 100 nM for both control and drug‐treated samples. The pooled aggregation mixture was sonicated using a Branson Ultrasonic™ Sonifier Cup Horns (Marshall Scientific, Hampton, NH, USA) at 30% amplitude (15 s ON and 15 s OFF for 1 min) to fragment larger aggregates into smaller ones, facilitating consistent transduction.
Tau RD P301S FRET Biosensor cells were plated at 5 × 10^3 cells per well in PhenoPlate 384‐well, black, optically clear flat‐bottom plates (Revvity; Part # 6057302) pre‐coated with 50 μg/mL Poly‐ᴅ‐Lysine (Sigma‐Aldrich, Cat. # P6407). After plating, cells were incubated for 30 min at room temperature to promote better cell spreading before returning the plates to the incubator.
The next day, cells were transduced with 100 nM of aggregation mixture, which were either: (i) prepared in the absence (control) or presence of 10 μM PUR or OLC for co‐aggregation studies (Figure 5), or (ii) prepared exclusively in the absence of compounds for post‐transduction treatment studies (Figure 6). The aggregation mixtures were premixed with 0.2 μL per well TurboFect™ Transfection Reagent (Thermo Fisher Scientific Inc., Cat. # R0533) in 10 μL Opti‐MEM™ (Thermo Fisher Scientific Inc., Cat. #11058021) and added to cells.
For co‐aggregation studies (Figure 5), cells were cultured for 48 h after transduction before processing for imaging. For post‐transduction treatment studies (Figure 6), cells were cultured for 24 h following transduction, then treated with PUR or OLC at concentrations ranging from 0 to 10 μM, and incubated for an additional 24 h.
In both experiments (Figures 5 and 6), cells were fixed after a total of 48 h with 2% paraformaldehyde (Electron Microscopy Services, Cat. #15714‐1 L) for 10 min at room temperature, washed once with 1× PBS, and stained with 10 μM Hoechst‐33342 nuclear dye (Invitrogen, Cat. #H21492) for 10–15 min. To preserve samples for imaging, 1% glycerol in deionized water was added to each well.
Cells were imaged on a Cell Voyager 7000S high‐content imaging system (Yokogawa, Tokyo, Japan) with a 20× objective. CFP/YFP inclusions of seeded tau were detected using a 488 nm laser line (Ex = 460–490 nm, Em = 500–550 nm), and Hoechst‐stained nuclei were detected using a 405 nm laser line (Ex = 360–400 nm, Em = 410–480 nm). At least 10–15 focal areas per well were imaged for each replicate. Image analysis was performed using Signals Image Artist (Revvity) to quantify the number of cells (Hoechst‐stained nuclei) and intracellular CFP/YFP inclusions. Total inclusions per well were normalized to cell confluence and are presented as normalized seeding for graphing.

R2R3 (V287I) tau peptide = R2R3 (V287I) tau peptide (Homo sapiens, UniProt P10636, V604I); experiment: SPR titration cycle kinetics, immobilized R2R3 (V287I) peptide; format: binding
Sequence of R2R3 (V287I) tau peptide (P10636 592-653 V604I): as the sequence (P10636 592-653 N596K) above, with K5N, V13I counted along it
Experimental: as §1, §2, §3, §4, §5, §6, §7, §8

[2] = R2R3 N279K aggregated with 10 μM compound
[3] = R2R3 P301L aggregated with 10 μM compound
[4] = R2R3 V287I aggregated with 10 μM compound
[5] = R2R3 WT aggregated with 10 μM compound

Row | Structure (SMILES) | Kon (R2R3 (N279K) tau peptide; SPR, R2R3 N279K) | koff (R2R3 (N279K) tau peptide; SPR, R2R3 N279K) | Kd (R2R3 (N279K) tau peptide; SPR, R2R3 N279K peptide immobilized, 25°C, PBS pH 7.4, read-out: KD) | intracellular seeding (CFP/YFP inclusions) by aggregation products [1, 2] | intracellular seeding (CFP/YFP inclusions) by aggregation products [1, 3] | intracellular seeding (CFP/YFP inclusions) by aggregation products [1, 4] | intracellular seeding (CFP/YFP inclusions) by aggregation products [1, 5] | Kon (R2R3 (V287I) tau peptide; SPR, R2R3 V287I) | koff (R2R3 (V287I) tau peptide; SPR, R2R3 V287I) | Kd (R2R3 (V287I) tau peptide; SPR, R2R3 V287I peptide immobilized, 25°C, PBS pH 7.4, read-out: KD) | Kd (R2R3 (N279K) tau peptide) | kon (R2R3 (N279K) tau peptide; SPR, R2R3 N279K) | koff (R2R3 (N279K) tau peptide; SPR, R2R3 N279K, read-out: Koff) | Kd (R2R3 (V287I) tau peptide) | kon (R2R3 (V287I) tau peptide; SPR, R2R3 V287I) | koff (R2R3 (V287I) tau peptide; SPR, R2R3 V287I, read-out: Koff)
1 | C/C=C(/C=O)[C@@H](CC=O)CC(=O)OCCc1ccc(O)cc1 [OLC, oleocanthal] | 34.60 M⁻¹ s⁻¹ | 6.87e-05 s⁻¹ | 1.98 µM | abolished the formation of species capable of inducing intracellular seeding; also recorded: significantly reduced seeding | abolished the formation of species capable of inducing intracellular seeding; also recorded: significantly reduced seeding | abolished the formation of species capable of inducing intracellular seeding; also recorded: near‐complete inhibition of seeding | effectively abolishing intracellular seeding | 42.24 M⁻¹ s⁻¹ | 8.69e-05 s⁻¹ | 2.06 µM |  |  |  |  |  | 
2 | O=C1c2ccccc2C(=O)c2c(O)c(O)cc(O)c21 [PUR, purpurin] |  |  |  | abolished the formation of species capable of inducing intracellular seeding; also recorded: significantly reduced seeding | abolished the formation of species capable of inducing intracellular seeding; also recorded: significantly reduced seeding | abolished the formation of species capable of inducing intracellular seeding; also recorded: near‐complete inhibition of seeding | did not affect the seeding competency |  |  |  | 4.22 µM | 70.3 M⁻¹ s⁻¹ | 0.000297 s⁻¹ | 4.73 µM | 42.1 M⁻¹ s⁻¹ | 0.000199 s⁻¹
